In publication PMC8765320, “Identification of a Proteasome-Targeting Arylsulfonamide with Potential for the Treatment of Chagas’ Disease” (Antimicrobial Agents and Chemotherapy, 2022):
Where two headings read alike, the source gives them in different places.

How the values were obtained:
[1] = system: T. cruzi malic enzyme (cTcME); assay: Malic enzyme assay in clarified epimastigote lysates (NADPH production, 340 nm); type: biochemical, Trypanosoma cruzi
From the text: Malic enzyme (ME) catalyzes the oxidative decarboxylation of malate to pyruvate with the concomitant reduction of NAD(P)^+ to NAD(P)H. In light of our TPP studies, we next sought to determine whether the binding of compound 1 to cTcME inhibits enzymatic activity. The ME-dependent production of NADPH was monitored in clarified lysates of T. cruzi epimastigotes at 340 nm after the addition of malate. In the first instance, this assay was validated using ATR-073, an established inhibitor of cTcME ([27]). […] Similarly, preincubation of lysates with 20 μM and 1 μM concentrations of compound 1 inhibited ME activity by 96 and 68%, respectively (Fig. 4C). […] It should be noted that ATR-073 and compound 1 are structurally similar, both being substituted N-phenyl aryl sulfonamides, this common moiety constituting the pharmacophore of this chemical series.
Logarithmic T. cruzi epimastigotes were harvested (1,690 × g, 10 min, 4°C), washed once in ice-cold phosphate-buffered saline, and resuspended at 2 × 10^9 cells ml^−1 in lysis buffer (10 mM phosphate buffer [pH 7.2], 10 mM EDTA, 5 mM benzamidine, 5 mM phenanthroline, 0.1 mM phenylmethylsulfonyl fluoride) containing 1 mg ml^−1 digitonin, followed by incubation at 28°C for 10 min. The resulting lysate was then centrifuged (13,000 × g, 10 min, 4°C), and the supernatant was harvested and stored on ice. The protein concentration of this clarified lysate was determined by using a standard Bio-Rad protein assay.
The activity of malic enzyme was assayed as previously described ([42]), with minor modifications. T. cruzi clarified lysate (30 μl) was added to a reaction mixture (500 μl final volume) containing 50 mM Tris-HCl buffer (pH 7.6), 1 mM MnCl2, and 0.12 mM NADP^+. Reactions were initiated by the addition of 5 mM L-malate. The reduction of NADP^+ was monitored at 340 nm using a UV-2401 spectrophotometer (Shimadzu). To monitor the effect of test compounds on the activity of malic enzyme, compounds (1 and 20 μM) were preincubated for 10 min with the lysate in the reaction mixture. DMSO (0.2%) was used as control. All enzymatic activities were calculated as Δabs min^−1 mg^−1 of protein.

[2] = system: T. cruzi epimastigotes; assay: T. cruzi epimastigote drug sensitivity assay (resazurin); type: cell-based, Trypanosoma cruzi; conditions: for EC50: Trypanosoma cruzi
Procedure: To examine the effects of test compounds on the growth of T. cruzi epimastigotes, mid-log-phase parasites were seeded into 96-well plates at a cell density of 5 × 10^5 cells ml^−1. Cells were exposed to test compounds over a range of concentrations (2-fold serial dilutions). Cells were incubated for 4 days, and then 20 μl of 2.5 mM resazurin was added to each well, before measuring the fluorescence (excitation, 528 nm; emission, 590 nm), following a further 24 h of incubation. […] In this equation, [I] represents the inhibitor concentration, and m is the slope factor. Experiments were repeated at least two times, and the data are presented as means plus the standard deviations.

[3] = system: HepG2 cells; assay: HepG2 drug sensitivity assay (resazurin); type: cell-based; conditions: Homo sapiens; Mammalian HepG2; 72 h; weighted mean, n ≥ 3; read-out: Mean compound 1 EC50 ± SD
Procedure: L. donovani promastigote ([35]), axenic amastigote ([25]), and T. brucei bloodstream form ([36]) drug sensitivity assays were carried out as previously described. HepG2 monolayers were washed twice in PBS, detached with 0.05% trypsin/EDTA, and then diluted with fully supplemented MEM growth medium. Cells were pelleted at 80 × g for 5 min and resuspended in fully supplemented growth medium. Cells were seeded into 96-well plates (5 × 10^4/well) and allowed to adhere prior to exposure to test compounds. Plates were incubated at 37°C in the presence of 5% CO2 for 72 h. After incubation, resazurin (20 μl of a 2.5-mg/ml^−1 stock solution) was added to each well, followed by incubation for a further 2 h prior to fluorescence being read as described above.

With `COc1ccc(NS(=O)(=O)c2cc(-c3cc(C)n[nH]3)ccc2C)cc1OC` [Compound 1] the “reduction in ME activity” value ([1]; preincubation of lysates with 1 μM) was 68%, the “reduction in ME activity” value ([1]; preincubation of lysates with 20 μM) was 96% and the EC50 ([2]; T. cruzi epimastigote, weighted mean, n ≥ 3, read-out: Mean compound 1 EC50 ± SD) was 3 ± 0.08 µM. It also gave an EC50 ([2]; WT promastigotes (so in the source), Fig. 2B, one biological replicate, read-out: EC50) of 0.7 ± 0.01 µM, an EC50 ([2]; cell line Wild type, read-out: Mean EC50 ± SD) of 3.3 ± 0.08 µM and an EC50 ([2]; read-out: Mean EC50 ± SD, cell line ME OE (cTcME overexpressing)) of 5 ± 0.11 µM. It also gave an EC50 ([2]; read-out: Mean EC50 ± SD, cell line RES I (compound 1-resistant, β5 D225N)) of 61 ± 1 µM, an EC50 ([2]; read-out: Mean EC50 ± SD, cell line RES II (compound 1-resistant, β5 D225N)) of 54 ± 1 µM and an EC50 ([2]; read-out: Mean EC50 ± SD, cell line RES III (compound 1-resistant, β5 D225N)) of 61 ± 0.7 µM. The EC50 ([2]; read-out: Mean EC50 ± SD, cell line RES IV (compound 1-resistant, no proteasome mutation)) was 31 ± 2 µM, the EC50 ([2]; read-out: Mean EC50 ± SD, cell line RES V (compound 1-resistant, β4 I27T)) was 70 ± 2 µM and the EC50 ([2]; read-out: Mean EC50 ± SD, cell line Res I-β5 OE (β5 WT overexpressed in RES I)) was 13 ± 0.8 µM. For the same compound, the EC50 ([2]; read-out: Mean EC50 ± SD, cell line β4 F24L/I29M (CRISPR-edited)) was greater than 50 µM, the EC50 ([2]; read-out: Mean EC50 ± SD, cell line β5 D225N-OE (overexpressing mutated β5)) was 27 ± 1 µM and the EC50 ([2]; resistant clone I, Fig. 2B, one biological replicate, read-out: EC50) was 23 ± 4 µM. For the same compound, the EC50 ([2]; resistant clone II, Fig. 2B, one biological replicate, read-out: EC50) was 16 ± 0.3 µM, the EC50 ([2]; resistant clone IV, Fig. 2B, one biological replicate, read-out: EC50) was 11 ± 1 µM and the EC50 ([2]; resistant clone V, Fig. 2B, one biological replicate, read-out: EC50) was 14 ± 6 µM. The “fold change versus the WT” value ([2]; cell line ME OE) was 1 fold, the “fold change versus the WT” value ([2]; cell line RES I) was 18 fold and the “fold change versus the WT” value ([2]; cell line RES II) was 16 fold. For the same compound, the “fold change versus the WT” value ([2]; cell line RES III) was 18 fold, the “fold change versus the WT” value ([2]; cell line RES IV) was 9 fold and the “fold change versus the WT” value ([2]; cell line RES V) was 21 fold. For the same compound, the “fold change versus the WT” value ([2]; cell line Res I-β5 OE) was 4 fold, the “fold change versus the WT” value ([2]; cell line β4 F24L/I29M) was greater than 15 fold and the “fold change versus the WT” value ([2]; cell line β5 D225N-OE) was 8 fold. The “susceptibility of CRISPR-edited epimastigotes” value ([2]; β4 F24L and I29M, at all of the concentrations tested) was “refractory” and the EC50 [3] was 23 ± 3 µM.
